Experiments:
MAPK1 (ERK2) = MAPK1 (ERK2) (Homo sapiens, UniProt P28482); assay: SelectScreen kinase profiling: MAPK1; assay type: biochemical; details: [ATP] 100 µM
Description: (§1) Effect of the indicated compounds on the activity of various kinases was assessed by SelectScreen Kinase Profiling Service (Invitrogen-Life Technologies, Paisley, UK). Assays were performed using 1 μM of the tested compounds and ATP concentration as indicated in the corresponding tables. In the case of […] a screen using 10 μM of the compound was also carried out, as indicated in the corresponding table.

CSNK1A1 (CK1α1) = CSNK1A1 (CK1α1) (Homo sapiens, UniProt P48729); assay: SelectScreen kinase profiling: CSNK1A1; assay type: biochemical; details: [ATP] 5 µM
Description: as §1

PRKCB1 (PKCβI) = PRKCB1 (PKCβI) (Homo sapiens, UniProt P05771); assay: SelectScreen kinase profiling: PRKCB1; assay type: biochemical; details: [ATP] 200 µM
PRKCB1 (PKCβI), sequence (P05771 whole entry): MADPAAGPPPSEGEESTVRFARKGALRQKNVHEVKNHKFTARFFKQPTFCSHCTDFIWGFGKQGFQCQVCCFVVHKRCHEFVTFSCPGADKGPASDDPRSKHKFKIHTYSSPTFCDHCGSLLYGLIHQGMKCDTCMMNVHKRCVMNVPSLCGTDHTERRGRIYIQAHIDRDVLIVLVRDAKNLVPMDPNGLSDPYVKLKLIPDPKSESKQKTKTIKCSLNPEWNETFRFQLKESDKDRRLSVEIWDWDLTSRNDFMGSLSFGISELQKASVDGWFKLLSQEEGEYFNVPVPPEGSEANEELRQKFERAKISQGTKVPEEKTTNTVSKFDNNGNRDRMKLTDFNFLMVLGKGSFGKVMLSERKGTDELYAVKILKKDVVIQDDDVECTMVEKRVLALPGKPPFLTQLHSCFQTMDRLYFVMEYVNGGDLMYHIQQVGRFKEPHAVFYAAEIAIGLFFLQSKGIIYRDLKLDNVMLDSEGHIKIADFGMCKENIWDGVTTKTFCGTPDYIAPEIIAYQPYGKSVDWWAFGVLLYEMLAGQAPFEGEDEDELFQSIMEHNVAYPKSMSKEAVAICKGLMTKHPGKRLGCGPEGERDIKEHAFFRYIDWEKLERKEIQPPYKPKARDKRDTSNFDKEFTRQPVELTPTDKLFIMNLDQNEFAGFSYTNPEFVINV
Description: as §1

MAPKAPK2 = MAPKAPK2 (Homo sapiens, UniProt P49137); assay: SelectScreen kinase profiling: MAPKAPK2; assay type: biochemical; details: 1 µM compound; [ATP] 5 µM
Description: as §1

CSNK2A2 (CK2α2) = CSNK2A2 (CK2α2) (Homo sapiens, UniProt P19784); assay: SelectScreen kinase profiling: CSNK2A2; assay type: biochemical; details: [ATP] 50 µM
Description: as §1

PI4KB (PI4Kβ) = PI4KB (PI4Kβ) (Homo sapiens, UniProt Q9UBF8); assay: SelectScreen kinase profiling: PI4KB; assay type: biochemical; details: [ATP] 5 µM
Description: as §1

RPS6KB1 (p70S6K) = RPS6KB1 (p70S6K) (Homo sapiens, UniProt P23443); assay: SelectScreen kinase profiling: RPS6KB1; assay type: biochemical; details: [ATP] 10 µM
Description: as §1

GSK3B (GSK3β) = GSK3B (GSK3β) (Homo sapiens, UniProt P49841); assay: SelectScreen kinase profiling: GSK3B; assay type: biochemical; details: [ATP] 10 µM
Description: as §1

CDK2/cyclin A = CDK2/cyclin A (Homo sapiens, UniProt P24941); assay: SelectScreen kinase profiling: CDK2/cyclin A; assay type: biochemical; details: [ATP] 25 µM
Description: as §1

CLK1 = CLK1 (Homo sapiens, UniProt P49759); assay: SelectScreen kinase profiling: CLK1; assay type: biochemical; details: [ATP] 25 µM
CLK1, sequence (P49759 whole entry): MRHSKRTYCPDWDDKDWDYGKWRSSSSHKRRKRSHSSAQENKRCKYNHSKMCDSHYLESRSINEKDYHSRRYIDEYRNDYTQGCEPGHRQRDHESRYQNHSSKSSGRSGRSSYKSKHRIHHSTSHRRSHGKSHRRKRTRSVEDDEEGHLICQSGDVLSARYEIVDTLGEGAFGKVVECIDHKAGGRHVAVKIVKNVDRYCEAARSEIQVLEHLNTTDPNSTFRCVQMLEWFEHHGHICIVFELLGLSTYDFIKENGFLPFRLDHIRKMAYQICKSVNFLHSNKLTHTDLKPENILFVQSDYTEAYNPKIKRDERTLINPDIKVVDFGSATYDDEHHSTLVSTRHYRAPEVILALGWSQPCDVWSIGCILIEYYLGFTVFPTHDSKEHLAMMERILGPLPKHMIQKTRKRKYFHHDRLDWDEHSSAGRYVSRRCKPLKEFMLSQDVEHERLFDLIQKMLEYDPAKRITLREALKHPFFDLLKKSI
Description: as §1

Water solubility = assay type: physicochemical
CHEK1 (CHK1) = CHEK1 (CHK1) (Homo sapiens, UniProt O14757); assay: SelectScreen kinase profiling: CHEK1; assay type: biochemical; details: [ATP] 50 µM
Description: as §1

MARK1 (MARK) = MARK1 (MARK) (Homo sapiens, UniProt Q9P0L2); assay: SelectScreen kinase profiling: MARK1; assay type: biochemical; details: [ATP] 5 µM
MARK1 (MARK), sequence (Q9P0L2 whole entry): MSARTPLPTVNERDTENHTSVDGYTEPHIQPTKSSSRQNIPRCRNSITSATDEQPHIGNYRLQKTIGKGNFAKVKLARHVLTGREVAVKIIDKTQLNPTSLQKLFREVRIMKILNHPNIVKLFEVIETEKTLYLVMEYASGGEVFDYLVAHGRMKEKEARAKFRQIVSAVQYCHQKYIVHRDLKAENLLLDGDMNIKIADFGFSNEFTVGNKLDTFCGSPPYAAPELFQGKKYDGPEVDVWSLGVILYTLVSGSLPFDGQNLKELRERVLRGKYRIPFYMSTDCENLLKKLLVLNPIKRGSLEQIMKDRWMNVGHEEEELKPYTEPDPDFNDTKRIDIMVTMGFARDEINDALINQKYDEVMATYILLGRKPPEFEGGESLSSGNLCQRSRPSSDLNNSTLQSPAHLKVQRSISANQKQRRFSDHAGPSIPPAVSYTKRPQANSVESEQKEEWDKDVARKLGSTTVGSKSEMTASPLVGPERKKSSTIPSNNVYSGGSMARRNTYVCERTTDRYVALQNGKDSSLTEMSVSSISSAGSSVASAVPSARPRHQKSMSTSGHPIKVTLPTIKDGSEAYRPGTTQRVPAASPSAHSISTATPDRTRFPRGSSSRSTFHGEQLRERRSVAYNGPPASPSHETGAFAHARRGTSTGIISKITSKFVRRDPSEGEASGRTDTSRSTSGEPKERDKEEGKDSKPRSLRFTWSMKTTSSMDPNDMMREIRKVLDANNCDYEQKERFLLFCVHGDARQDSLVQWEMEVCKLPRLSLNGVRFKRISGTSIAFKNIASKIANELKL
Description: as §1

MAP2K2 (MEK2) = MAP2K2 (MEK2) (Homo sapiens, UniProt P36507); assay: SelectScreen kinase profiling: MAP2K2; assay type: biochemical; details: [ATP] 100 µM
Description: as §1

AMPK A2/B1/G1 = AMPK A2/B1/G1 (Homo sapiens, UniProt P54646); assay: SelectScreen kinase profiling: AMPK A2/B1/G1; assay type: biochemical; details: 1 µM compound; [ATP] 150 µM
Description: as §1

JAK1 = JAK1 (Homo sapiens, UniProt P23458); assay: SelectScreen kinase profiling: JAK1; assay type: biochemical; details: [ATP] 75 µM
JAK1, sequence (P23458 whole entry): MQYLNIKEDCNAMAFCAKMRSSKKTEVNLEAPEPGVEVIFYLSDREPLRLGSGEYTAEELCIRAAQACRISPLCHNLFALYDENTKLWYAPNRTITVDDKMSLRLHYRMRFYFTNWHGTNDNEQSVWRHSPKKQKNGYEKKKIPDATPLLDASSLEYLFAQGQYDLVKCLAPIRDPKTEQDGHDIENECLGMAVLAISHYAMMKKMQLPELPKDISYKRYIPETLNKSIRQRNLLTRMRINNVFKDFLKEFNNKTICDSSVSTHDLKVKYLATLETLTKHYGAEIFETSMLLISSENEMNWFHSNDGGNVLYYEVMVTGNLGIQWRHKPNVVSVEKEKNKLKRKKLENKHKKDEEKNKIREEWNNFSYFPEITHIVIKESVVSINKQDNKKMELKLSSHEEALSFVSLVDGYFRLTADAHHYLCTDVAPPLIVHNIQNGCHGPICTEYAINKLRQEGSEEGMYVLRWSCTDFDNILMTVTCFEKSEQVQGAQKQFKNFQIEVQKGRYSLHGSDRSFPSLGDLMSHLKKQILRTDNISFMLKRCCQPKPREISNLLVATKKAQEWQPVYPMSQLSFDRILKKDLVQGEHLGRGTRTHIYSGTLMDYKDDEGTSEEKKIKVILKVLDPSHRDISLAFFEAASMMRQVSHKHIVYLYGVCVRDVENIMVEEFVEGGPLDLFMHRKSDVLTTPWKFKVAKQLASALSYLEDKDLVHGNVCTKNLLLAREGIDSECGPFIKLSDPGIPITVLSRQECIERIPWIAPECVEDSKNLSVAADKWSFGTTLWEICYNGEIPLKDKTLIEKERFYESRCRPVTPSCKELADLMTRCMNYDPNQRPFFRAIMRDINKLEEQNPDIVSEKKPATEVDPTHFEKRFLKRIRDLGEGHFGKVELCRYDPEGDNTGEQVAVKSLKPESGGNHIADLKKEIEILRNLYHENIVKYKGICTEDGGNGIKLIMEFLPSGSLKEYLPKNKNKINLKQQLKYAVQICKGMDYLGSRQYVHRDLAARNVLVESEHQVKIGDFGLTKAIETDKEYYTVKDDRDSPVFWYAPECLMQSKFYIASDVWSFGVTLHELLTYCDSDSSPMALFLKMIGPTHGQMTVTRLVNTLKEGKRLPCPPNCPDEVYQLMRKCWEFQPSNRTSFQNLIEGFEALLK
Description: as §1

PRKCE (PKCε) = PRKCE (PKCε) (Homo sapiens, UniProt Q02156); assay: SelectScreen kinase profiling: PRKCE; assay type: biochemical; details: [ATP] 25 µM
Description: as §1

PC3 = assay: SRB assay, PC3; assay type: cell-based, human; details: PC3, 72 h
Description: Cells seeded in a 24-well plate were treated with the indicated compounds in serum free DMEM or DMEM containing 0.5% FBS (PC3). After 72 h, the number of surviving cells was assessed by manual cell counting or by using the cell counter CDA-500 (Sysmex, Milton Keynes, UK). Alternatively, after 48 h, the number of apoptotic cells was assessed by acridine orange/ethidium bromide assay as described ([Piccolo et al, 2004]; [Maffucci et al, 2005]). SRB test was carried out in SKOV-3 and PC3 seeded in 96-well plate (3800 cells per well or 5800 cells per well, respectively) after 72 h of treatment as described ([Cappella et al, 2001]).
The number of surviving cells was assessed by cell counting. Data are mean±s.e. of n=3 (A), n=6 (B), n=3 (C) and n=4 (D) independent experiments carried out in duplicate. ^*=P<0.01; ^**=P<0.05. […] After 72 h the number of surviving cells was assessed by SRB assay. Data are mean±s.e. of n=2 independent experiments.
Data are mean±s.e. of n=4 independent experiments carried out in duplicate. […] Data are mean±s.e. of n=5 independent experiments carried out in duplicate. […] Data are mean±s.e. of n=6 independent experiments carried out in duplicate. […] Data are mean±s.e. of n=2 independent experiments carried out in duplicate. In all cases (A–D), cells were treated for 72 h and the number of surviving cells was assessed by cell counting. […] In all cases (E, F), cells were treated for 72 h and the number of surviving cells was assessed by SRB assay and data are mean±s.e. of two experiments carried out in quadruplicate.

AURKA (Aurora A) = AURKA (Aurora A) (Homo sapiens, UniProt O14965); assay: SelectScreen kinase profiling: AURKA; assay type: biochemical; details: 1 µM compound; [ATP] 10 µM
Description: as §1

Akt1 (PKBα) = Akt1 (PKBα) (Homo sapiens, UniProt P31749); assay: SelectScreen kinase profiling: Akt1; assay type: biochemical; details: 10-point titration; [ATP] 75 μM
Description: Effect of the indicated compounds on the activity of various kinases was assessed by SelectScreen Kinase Profiling Service (Invitrogen-Life Technologies, Paisley, UK). […] In the case of […] a screen using 10 μM of the compound was also carried out, as indicated in the corresponding table.

CAMK2A (CaMKII alpha) = CAMK2A (CaMKII alpha) (Homo sapiens, UniProt Q9UQM7); assay: SelectScreen kinase profiling: CAMK2A; assay type: biochemical; details: [ATP] 10 µM
Description: as §1

ROCK1 = ROCK1 (Homo sapiens, UniProt Q13464); assay: SelectScreen kinase profiling: ROCK1; assay type: biochemical; details: [ATP] 5 µM
Description: as §1

RPS6KA1 (RSK1) = RPS6KA1 (RSK1) (Homo sapiens, UniProt Q15418); assay: SelectScreen kinase profiling: RPS6KA1; assay type: biochemical; details: [ATP] 5 µM
Description: as §1

BRAF = BRAF (Homo sapiens, UniProt P15056); assay: SelectScreen kinase profiling: BRAF; assay type: biochemical; details: [ATP] 100 µM
BRAF, sequence (P15056 whole entry): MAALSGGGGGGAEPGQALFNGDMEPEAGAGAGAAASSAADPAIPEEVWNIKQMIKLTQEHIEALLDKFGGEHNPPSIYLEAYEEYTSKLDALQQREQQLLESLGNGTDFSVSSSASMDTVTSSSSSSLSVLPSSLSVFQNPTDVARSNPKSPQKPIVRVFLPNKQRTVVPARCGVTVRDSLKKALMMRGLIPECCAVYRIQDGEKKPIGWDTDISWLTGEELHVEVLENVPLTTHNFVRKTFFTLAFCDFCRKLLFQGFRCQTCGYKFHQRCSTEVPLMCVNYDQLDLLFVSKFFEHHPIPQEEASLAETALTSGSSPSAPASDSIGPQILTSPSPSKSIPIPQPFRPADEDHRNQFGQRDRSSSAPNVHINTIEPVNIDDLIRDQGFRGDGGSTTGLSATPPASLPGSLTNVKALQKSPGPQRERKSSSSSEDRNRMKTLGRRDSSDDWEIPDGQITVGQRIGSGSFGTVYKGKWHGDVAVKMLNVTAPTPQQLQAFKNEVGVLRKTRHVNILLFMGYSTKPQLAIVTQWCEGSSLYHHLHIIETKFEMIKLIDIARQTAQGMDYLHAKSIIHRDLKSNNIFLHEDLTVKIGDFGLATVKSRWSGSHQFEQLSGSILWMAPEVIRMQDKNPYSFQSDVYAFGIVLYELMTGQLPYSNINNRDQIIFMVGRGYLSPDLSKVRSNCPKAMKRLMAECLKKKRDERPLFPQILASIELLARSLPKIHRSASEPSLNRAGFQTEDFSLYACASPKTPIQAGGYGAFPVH
Description: as §1

LCK = LCK (Homo sapiens, UniProt P06239); assay: SelectScreen kinase profiling: LCK; assay type: biochemical; details: [ATP] 50 µM
Description: as §1

CDK5/p25 = CDK5/p25 (Homo sapiens, UniProt Q00535); assay: SelectScreen kinase profiling: CDK5/p25; assay type: biochemical; details: [ATP] 10 µM
CDK5/p25, sequence (Q00535 whole entry): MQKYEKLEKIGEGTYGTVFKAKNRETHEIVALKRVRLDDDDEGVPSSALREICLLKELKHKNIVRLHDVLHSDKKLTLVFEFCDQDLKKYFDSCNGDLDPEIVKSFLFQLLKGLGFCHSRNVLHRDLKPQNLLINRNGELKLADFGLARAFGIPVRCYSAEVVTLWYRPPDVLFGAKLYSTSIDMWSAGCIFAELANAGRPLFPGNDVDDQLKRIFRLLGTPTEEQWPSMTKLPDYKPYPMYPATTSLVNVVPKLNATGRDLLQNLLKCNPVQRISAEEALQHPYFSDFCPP
CDK5/p25, sequence (Q15078 99-307 partner limits assumed): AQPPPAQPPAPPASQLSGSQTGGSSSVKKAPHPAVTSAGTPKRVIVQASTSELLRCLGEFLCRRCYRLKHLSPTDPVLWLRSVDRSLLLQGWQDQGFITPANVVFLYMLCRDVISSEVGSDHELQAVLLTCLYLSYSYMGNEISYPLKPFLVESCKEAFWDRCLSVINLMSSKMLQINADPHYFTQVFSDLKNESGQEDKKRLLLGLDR
Description: as §1

CDK5/p35 = CDK5/p35 (Homo sapiens, UniProt Q00535); assay: SelectScreen kinase profiling: CDK5/p35; assay type: biochemical; details: [ATP] 10 µM
CDK5/p35, sequence (Q00535 whole entry): as the sequence (Q00535 whole entry) above
CDK5/p35, sequence (Q15078 whole entry partner): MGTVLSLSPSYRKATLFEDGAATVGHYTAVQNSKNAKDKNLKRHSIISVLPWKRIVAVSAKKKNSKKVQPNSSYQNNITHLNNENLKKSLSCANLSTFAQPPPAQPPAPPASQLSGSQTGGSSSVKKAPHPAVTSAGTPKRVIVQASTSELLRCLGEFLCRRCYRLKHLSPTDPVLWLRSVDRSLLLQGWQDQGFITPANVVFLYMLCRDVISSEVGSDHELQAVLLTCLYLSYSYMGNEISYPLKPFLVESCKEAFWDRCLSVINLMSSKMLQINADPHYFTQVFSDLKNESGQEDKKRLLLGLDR
Description: as §1

## O=P(O)(O)OC1C(OCc2ccccc2)C(OP(=O)(O)O)C(OP(=O)(O)O)C(OP(=O)(O)O)C1OP(=O)(O)O (stereo not shown) [2-O-Bn-InsP5, 2-O-benzyl-myo-inositol 1,3,4,5,6-pentakisphosphate]
MAPK1 (ERK2); 1 µM compound
  inhibition at 1 µM: 6%
CSNK1A1 (CK1α1); 1 µM compound
  inhibition at 1 µM: 0%
PRKCB1 (PKCβI); 1 µM compound
  inhibition at 1 µM: 11%
MAPKAPK2
  inhibition at 1 µM: 20%
CSNK2A2 (CK2α2); 1 µM compound
  inhibition at 1 µM: 2%
PI4KB (PI4Kβ); 1 µM compound
  inhibition at 1 µM: 0%
RPS6KB1 (p70S6K); 1 µM compound
  inhibition at 1 µM: 17%
GSK3B (GSK3β); 1 µM compound
  inhibition at 1 µM: 11%
CDK2/cyclin A; 1 µM compound
  inhibition at 1 µM: 2%
CLK1; 1 µM compound
  inhibition at 1 µM: -4%
Water solubility
  water solubility: water soluble compound
CHEK1 (CHK1); 1 µM compound
  inhibition at 1 µM: 15%
MARK1 (MARK); 1 µM compound
  inhibition at 1 µM: 0%
MAP2K2 (MEK2); 1 µM compound
  inhibition at 1 µM: 8%
AMPK A2/B1/G1
  inhibition at 1 µM: 25%
JAK1; 1 µM compound
  inhibition at 1 µM: -1%
PRKCE (PKCε); 1 µM compound
  inhibition at 1 µM: 14%
PC3
  number of surviving cells: Higher activity
AURKA (Aurora A)
  inhibition at 1 µM: 34%
Akt1 (PKBα)
  IC50: > 100 µM
CAMK2A (CaMKII alpha); 1 µM compound
  inhibition at 1 µM: -2%
ROCK1; 1 µM compound
  inhibition at 1 µM: 7%
RPS6KA1 (RSK1); 1 µM compound
  inhibition at 1 µM: 2%
BRAF; 1 µM compound
  inhibition at 1 µM: 5%
LCK; 1 µM compound
  inhibition at 1 µM: 7%
CDK5/p25; 1 µM compound
  inhibition at 1 µM: 3%
CDK5/p35; 1 µM compound
  inhibition at 1 µM: 2%

## O=P(O)(O)OC1C(O)C(OP(=O)(O)O)C(OP(=O)(O)O)C(OP(=O)(O)O)C1OP(=O)(O)O (stereo not shown) [InsP5, inositol 1,3,4,5,6-pentakisphosphate]
MAPK1 (ERK2); 10 µM compound
  inhibition at 10 µM: 8%
CSNK1A1 (CK1α1); 10 µM compound
  inhibition at 10 µM: 13%
PRKCB1 (PKCβI); 10 µM compound
  inhibition at 10 µM: 17%
MAPKAPK2
  inhibition at 1 µM: 4%
CSNK2A2 (CK2α2); 10 µM compound
  inhibition at 10 µM: 18%
PI4KB (PI4Kβ); 10 µM compound
  inhibition at 10 µM: 3%
RPS6KB1 (p70S6K); 10 µM compound
  inhibition at 10 µM: 9%
GSK3B (GSK3β); 10 µM compound
  inhibition at 10 µM: 20%
CDK2/cyclin A; 10 µM compound
  inhibition at 10 µM: 9%
CLK1; 10 µM compound
  inhibition at 10 µM: 9%
Water solubility
  water solubility: water soluble compound
CHEK1 (CHK1); 10 µM compound
  inhibition at 10 µM: 17%
MARK1 (MARK); 10 µM compound
  inhibition at 10 µM: 7%
MAP2K2 (MEK2); 10 µM compound
  inhibition at 10 µM: 3%
AMPK A2/B1/G1
  inhibition at 1 µM: 7%
JAK1; 10 µM compound
  inhibition at 10 µM: -2%
PRKCE (PKCε); 10 µM compound
  inhibition at 10 µM: 0%
PC3
  concentrations able to mimic the effect of 2-O-Bn-InsP5: 200 to 300 µM
  number of surviving cells: no effect in PC3 at concentrations up to 50 μM
AURKA (Aurora A)
  inhibition at 1 µM: 1%
Akt1 (PKBα)
  IC50: > 100 µM
CAMK2A (CaMKII alpha); 10 µM compound
  inhibition at 10 µM: 17%
ROCK1; 10 µM compound
  inhibition at 10 µM: 20%
RPS6KA1 (RSK1); 10 µM compound
  inhibition at 10 µM: 12%
BRAF; 10 µM compound
  inhibition at 10 µM: 10%
LCK; 10 µM compound
  inhibition at 10 µM: -26%
CDK5/p25; 10 µM compound
  inhibition at 10 µM: 13%
CDK5/p35; 10 µM compound
  inhibition at 10 µM: 5%

— publication PMC2813745, “A novel inhibitor of the PI3K/Akt pathway based on the structure of inositol 1,3,4,5,6-pentakisphosphate” (British Journal of Cancer, 2010)
